Key:
K562 [1] = assay: Induction of apoptosis in human K562 cells assessed as early apoptotic cells at 10 uM incubated for 48 hrs by Annexin V-FITC/PI staining based flow cytometry analysis (Rvb= 11.35%); type: functional
K562 [2] = assay: Induction of apoptosis in human K562 cells assessed as viable cells at 10 uM incubated for 48 hrs by Annexin V-FITC/PI staining based flow cytometry analysis (Rvb= 83.0.5%); type: functional; conditions: read-out: Activity
K562 [3] = assay: Induction of apoptosis in human K562 cells assessed as late apoptotic cells at 5 uM incubated for 48 hrs by Annexin V-FITC/PI staining based flow cytometry analysis (Rvb= 5.35%); type: functional
[4] = target: Bcr/Abl fusion protein (Homo sapiens) (UniProt P00519+P11274); assay: Inhibition of Bcr-Abl phosphorylation at Tyr245 residue in human K562 cells expressing wild type Bcr-Abl at 0.1 to 15 uM measured after 48 hrs by Western blot analysis; type: cell-based; conditions: dose 0.1-15 µM, DDE = dose-dependent effect
BaF3 [5] = assay: Antiproliferative activity against mouse BaF3 cells expressing Bcr-Abl T315I mutant assessed as inhibition of cell growth incubated for 72 hrs by CellTiter-Glo luminescent assay; type: functional, cell-based; conditions: BaF3, 72 h
K562 [6] = assay: Induction of apoptosis in human K562 cells assessed as early apoptotic cells at 5 uM incubated for 48 hrs by Annexin V-FITC/PI staining based flow cytometry analysis (Rvb= 11.35%); type: functional
EA.hy 926 = assay: Cytotoxicity against human EA.hy 926 cells assessed as inhibition of cell growth upto 100 uM incubated for 48 hrs by MTT assay; type: toxicity, cell-based; conditions: ea.hy 926, 48 h
K562 [7] = assay: Induction of cell cycle arrest in human K562 cells assessed as accumulation at S phase at 5 to 20 uM incubated for 48 hrs by PI staining based flow cytometry (Rvb=49%); type: functional; conditions: dose 5-20 µM
K562 [8] = assay: Induction of apoptosis in human K562 cells assessed as late apoptotic cells at 20 uM incubated for 48 hrs by Annexin V-FITC/PI staining based flow cytometry analysis (Rvb= 5.35%); type: functional
K562 [9] = assay: Induction of apoptosis in human K562 cells assessed as necrotic cells at 10 uM incubated for 48 hrs by Annexin V-FITC/PI staining based flow cytometry analysis (Rvb= 0.25%); type: functional
K562 [10] = assay: Antiproliferative activity against human K562 cells assessed as inhibition of cell growth incubated for 48 hrs by MTT assay; type: functional, cell-based; conditions: K562, 48 h
K562 [11] = assay: Induction of apoptosis in human K562 cells assessed as late apoptotic cells at 10 uM incubated for 48 hrs by Annexin V-FITC/PI staining based flow cytometry analysis (Rvb= 5.35%); type: functional
K562 [12] = assay: Induction of apoptosis in human K562 cells assessed as early apoptotic cells at 20 uM incubated for 48 hrs by Annexin V-FITC/PI staining based flow cytometry analysis (Rvb= 11.35%); type: functional
BaF3 [13] = assay: Antiproliferative activity against mouse BaF3 cells assessed as inhibition of cell growth incubated for 72 hrs by CellTiter-Glo luminescent assay; type: functional, cell-based; conditions: BaF3, 72 h
BaF3 [14] = assay: Antiproliferative activity against mouse BaF3 cells expressing wild type Bcr-Abl assessed as inhibition of cell growth incubated for 72 hrs by CellTiter-Glo luminescent assay; type: functional, cell-based; conditions: BaF3, 72 h
K562 [15] = assay: Induction of apoptosis in human K562 cells assessed as viable cells at 5 uM incubated for 48 hrs by Annexin V-FITC/PI staining based flow cytometry analysis (Rvb= 83.0.5%); type: functional; conditions: read-out: Activity
BaF3 [16] = assay: Antiproliferative activity against mouse BaF3 cells expressing Bcr-Abl T315I mutant assessed as inhibition of cell growth at 30 uM incubated for 72 hrs by CellTiter-Glo luminescent assay; type: functional
K562 [17] = assay: Induction of apoptosis in human K562 cells assessed as viable cells at 20 uM incubated for 48 hrs by Annexin V-FITC/PI staining based flow cytometry analysis (Rvb= 83.0.5%); type: functional; conditions: read-out: Activity
K-562R = assay: Antiproliferative activity against human K-562R cells expressing Bcr-Abl T315I mutant assessed as inhibition of cell growth incubated for 48 hrs by MTT assay; type: functional, cell-based
HEK293 = assay: Cytotoxicity against human HEK293 cells assessed as inhibition of cell growth upto 100 uM incubated for 48 hrs by MTT assay; type: toxicity, cell-based; conditions: hek293, 48 h
K562 [18] = assay: Induction of apoptosis in human K562 cells assessed as necrotic cells at 20 uM incubated for 48 hrs by Annexin V-FITC/PI staining based flow cytometry analysis (Rvb= 0.25%); type: functional
K562 [19] = assay: Induction of apoptosis in human K562 cells assessed as necrotic cells at 5 uM incubated for 48 hrs by Annexin V-FITC/PI staining based flow cytometry analysis (Rvb= 0.25%); type: functional
[20] = target: T1, Signal transducer and activator of transcription 5A (Homo sapiens) (UniProt P42229); assay: Inhibition of STAT5 phosphorylation at Tyr694 residue in human K562 cells expressing wild type Bcr-Abl at 0.1 to 15 uM measured after 48 hrs by Western blot analysis; type: cell-based; conditions: dose 0.1-15 µM, DDE = dose-dependent effect
T1 sequence (whole entry): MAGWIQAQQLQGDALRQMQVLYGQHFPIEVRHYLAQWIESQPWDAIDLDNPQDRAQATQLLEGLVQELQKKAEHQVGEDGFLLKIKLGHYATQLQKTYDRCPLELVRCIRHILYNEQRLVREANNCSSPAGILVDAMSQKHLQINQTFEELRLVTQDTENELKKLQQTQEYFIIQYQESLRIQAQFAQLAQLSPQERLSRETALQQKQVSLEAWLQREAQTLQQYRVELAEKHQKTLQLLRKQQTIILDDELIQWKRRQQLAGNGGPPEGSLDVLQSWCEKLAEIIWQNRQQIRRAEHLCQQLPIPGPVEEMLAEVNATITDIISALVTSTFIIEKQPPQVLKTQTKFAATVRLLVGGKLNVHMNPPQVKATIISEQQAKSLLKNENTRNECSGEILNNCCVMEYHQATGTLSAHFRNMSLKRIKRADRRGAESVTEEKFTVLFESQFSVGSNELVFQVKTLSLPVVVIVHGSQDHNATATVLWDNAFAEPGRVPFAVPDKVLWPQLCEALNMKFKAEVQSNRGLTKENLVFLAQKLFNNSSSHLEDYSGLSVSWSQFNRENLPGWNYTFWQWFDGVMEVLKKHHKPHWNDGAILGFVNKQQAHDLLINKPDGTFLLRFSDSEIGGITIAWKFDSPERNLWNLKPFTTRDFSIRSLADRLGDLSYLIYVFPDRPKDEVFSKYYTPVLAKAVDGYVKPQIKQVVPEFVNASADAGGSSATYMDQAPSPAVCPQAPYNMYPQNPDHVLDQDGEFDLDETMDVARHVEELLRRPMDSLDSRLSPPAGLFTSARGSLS

Bcr/Abl fusion protein [21] = target: Bcr/Abl fusion protein (Homo sapiens, UniProt P00519); assay: Inhibition of wild type Bcr-Abl (unknown origin) incubated for 1 hr in presence of ATP by ADP-Glo kinase assay; type: protein assay
K562/Adr = assay: Antiproliferative activity against human Adriamycin-resistant K562/Adr cells assessed as inhibition of cell growth incubated for 48 hrs by MTT assay; type: functional, cell-based
Bcr/Abl fusion protein [22] = target: Bcr/Abl fusion protein (Homo sapiens, UniProt P00519, T315I); assay: Inhibition of Bcr-Abl T315I mutant (unknown origin) incubated for 1 hr in presence of ATP by ADP-Glo kinase assay; type: protein assay

With `O=C(Nc1n[nH]c2cc(-c3cn([C@@H]4CN[C@H](C(=O)Nc5ccc(Cl)c(C(F)(F)F)c5)C4)nn3)ccc12)C1CC1` the Activity (K562 [1]) was 18.48%, the viability at 10 µM (K562 [2]) was 68.6% and the Activity (K562 [3]) was 8.75%. For the same molecule, the inhibition [4] was “Dde”, the IC50 (BaF3 [5]) was 9.47 µM and the Activity (K562 [6]) was 14.34%. For the same molecule, the Activity (EA.hy 926) was “Non-Toxic”, the Activity (K562 [7]) was 54.15% and the Activity (K562 [8]) was 12.2%. The Activity (K562 [9]) was 0.19%, the IC50 (K562 [10]) was 5.2 µM and the Activity (K562 [11]) was 12.74%. For the same molecule, the Activity (K562 [12]) was 33.16%, the IC50 (BaF3 [13]) was greater than 20 µM and the IC50 (BaF3 [14]) was 1420 nM. It also gave a viability at 5 µM (K562 [15]) of 76.7%, an inhibition at 30 µM (BaF3 [16]) of 85.4% and a viability at 20 µM (K562 [17]) of 54.4%. The IC50 (K-562R) was 40.1 µM, the Activity (HEK293) was “Non-Toxic” and the Activity (K562 [18]) was 0.23%. The Activity (K562 [19]) was 0.22%, the inhibition [20] was “Dde” and the IC50 (Bcr/Abl fusion protein [21]) was 1.5 nM. The IC50 (K562/Adr) was 9.57 µM and the IC50 (Bcr/Abl fusion protein [22]) was 188 nM.

Reference: ChEMBL document CHEMBL5113400, “Design, synthesis, and biological evaluation of trizole-based heteroaromatic derivatives as Bcr-Abl kinase inhibitors” (Eur J Med Chem, 2022)
